According to article PMC3961306, “Comparison of the Cancer Gene Targeting and Biochemical Selectivities of All Targeted Kinase Inhibitors Approved for Clinical Use” (PLoS ONE, 2014):
Read-outs that look alike come from different tables or passages of the source.

What was measured:
[1] = system: forty-four human cancer cell lines; assay: Cell proliferation assay (ATPlite, 72 hours) in the 44 cell line Oncolines panel; format: cell-based; settings: Homo sapiens
[2] = target: panel of more than 300 wild-type and mutant kinases (313 kinase panel) (Homo sapiens, UniProt P11362, V561M); assay: Kinase profiling in a biochemical assay panel (mobility shift assays and ELISA), %-inhibition at 1 μM; selectivity entropy; settings: kinase FGFR1(V561M); compound at 1 μM

CC(C)(C)c1nc(-c2cccc(NS(=O)(=O)c3c(F)cccc3F)c2F)c(-c2ccnc(N)n2)s1 [dabrafenib]
IC50 ([1]; A 172, read-out: cell panel IC50, A-172): 3.5 µM | IC50 ([1]; A204, cell line A-204, read-out: cell panel IC50, A-204): 4.69 µM | IC50 ([1]; A498, read-out: cell panel IC50, A-498): 2.28 µM | IC50 ([1]; A549, read-out: cell panel IC50, A-549): 4.12 µM | IC50 ([1]; A-375, cell line A375, read-out: cell panel IC50, A375): 0.026 µM | IC50 ([1]; A-427, read-out: cell panel IC50, A-427): 3.45 µM | IC50 ([1]; AU565, read-out: cell panel IC50, AU-565): 5.92 µM | IC50 ([1]; BT-549, read-out: cell panel IC50, BT-549): 5.73 µM | IC50 ([1]; HCT-116, read-out: cell panel IC50, HCT-116): 0.85 µM | IC50 ([1]; K562, read-out: cell panel IC50, K-562): 13.5 µM | IC50 ([1]; LS174T, read-out: cell panel IC50, LS 174T): > 31.6 µM | IC50 ([1]; SHP77, cell line SHP-77, read-out: cell panel IC50, SHP-77): 28.9 µM | IC50 ([1]; SW-620, cell line SW620, read-out: cell panel IC50, SW620): 2.47 µM | IC50 ([1]; U2OS, cell line U-2 OS, read-out: cell panel IC50, U-2 OS): > 31.6 µM | IC50 ([1]; cell line J82, read-out: cell panel IC50, J82): > 31.6 µM | IC50 ([1]; cell line PA-1, read-out: cell panel IC50, PA-1): 2.11 µM | IC50 ([1]; cell line SJCRH30, read-out: cell panel IC50, SJCRH30): > 31.6 µM | IC50 ([1]; cell line SR, read-out: cell panel IC50, SR): 2.12 µM | IC50 ([1]; U-87 MG cell line, ATPlite, 72 hours, read-out: IC50 in cell proliferation assay (table S5 cellpanel data)): > 31.6 µM | IC50 ([1]; cell line 769-P, read-out: cell panel IC50, 769-P): 10.9 µM | IC50 ([1]; cell line 786-0, read-out: cell panel IC50, 786-0): 3.3 µM | IC50 ([1]; cell line ACHN, read-out: cell panel IC50, ACHN): 1.15 µM | IC50 ([1]; cell line AN3 CA, read-out: cell panel IC50, AN3 CA): > 31.6 µM | IC50 ([1]; cell line BT-20, read-out: cell panel IC50, BT-20): > 31.6 µM | IC50 ([1]; cell line BxPC-3, read-out: cell panel IC50, BxPC-3): 2.68 µM | IC50 ([1]; cell line C-33 A, read-out: cell panel IC50, C-33 A): 3.31 µM | IC50 ([1]; cell line CAL 27, read-out: cell panel IC50, CAL 27): 30.8 µM | IC50 ([1]; cell line CCRF-CEM, read-out: cell panel IC50, CCRF-CEM): > 31.6 µM | IC50 ([1]; cell line DLD-1, read-out: cell panel IC50, DLD-1): 3.92 µM | IC50 ([1]; cell line FaDu, read-out: cell panel IC50, FaDu): 4.38 µM | IC50 ([1]; cell line HCT-15, read-out: cell panel IC50, HCT-15): 3.33 µM | IC50 ([1]; cell line Hs 578T, read-out: cell panel IC50, Hs 578T): 11.5 µM | IC50 ([1]; cell line Jurkat E6.1, read-out: cell panel IC50, Jurkat E6.1): 3.12 µM | IC50 ([1]; cell line LoVo, read-out: cell panel IC50, LoVo): 1.86 µM | IC50 ([1]; cell line MG-63, read-out: cell panel IC50, MG-63): > 31.6 µM | IC50 ([1]; cell line MOLT-4, read-out: cell panel IC50, MOLT-4): 29.1 µM | IC50 ([1]; cell line MeWo, read-out: cell panel IC50, MeWo): 6.49 µM | IC50 ([1]; cell line NCI-H82, read-out: cell panel IC50, NCI-H82): 2.54 µM | IC50 ([1]; cell line NCI-H460, read-out: cell panel IC50, NCI-H460): 2.98 µM | IC50 ([1]; cell line OVCAR-3, read-out: cell panel IC50, OVCAR-3): 5.26 µM | IC50 ([1]; cell line RPMI-7951, read-out: cell panel IC50, RPMI-7951): 0.024 µM | IC50 ([1]; cell line SK-N-AS, read-out: cell panel IC50, SK-N-AS): 3.55 µM | IC50 ([1]; cell line SW48, read-out: cell panel IC50, SW48): 10.6 µM | IC50 ([1]; cell line SW480, read-out: cell panel IC50, SW480): 16.6 µM | %-inhibition of FGFR1(V561M) [2]: -0.282%
